assay type: in vivo, mouse; conditions: max. dose not affecting mice behaviour
Procedure: The analgesic action was detected in mouse, rat, guinea pig and dog. The mouse was subjected to hot plate and writhing tests; the rat to tail-flick and paw-pressure tests; the guinea pig to paw-pressure test only; the dog to the test described by Vainio et al. [J. Vet. Pharmacol. Ther., 12, 225-231 (1989)] using an electric stimulation. Consequently, the claimed compounds were tested with pain being induced by stimuli of different nature: thermal (hot plate and tail flick), chemical (writhing by acetic acid), mechanical (paw pressure) and electrical (cutaneous stimulation).
Potency, efficacy and toxicity of SM21, PG9 and SM32 in comparison with
four principal reference analgesic drugs tested in mouse. As analgesic

Compound | ANALGESIC ACTIVITY (degree of analgesia, latency on hot plate)
CC(Oc1ccc(Cl)cc1)C(=O)OC1CC2CCC(C1)N2C (single isomer, unassigned) [(R) ET142 (+)] | +++ (Latency under or equal to 35" +++-)
CC(Oc1ccc(F)cc1)C(=O)OC1CC2CCC(C1)N2C (single isomer, unassigned) [(R) NR100 (+)] | ++++ (Latency above 35" ++++-)
CCC(Sc1ccc(Cl)cc1)C(=O)OC1CC2CCC(C1)N2C (single isomer, unassigned) [(R) SM35 (+), 3α-Tropanyl 2-(p-chlorophenylthio)butyrate] | +++ (Latency under or equal to 35" +++-)
CC(Sc1ccc(Cl)cc1)C(=O)OC1CC2CCC(C1)N2C (single isomer, unassigned) [(R) SS20 (+)] | +++ (Latency under or equal to 35" +++-)
CC(Oc1ccc(Cl)cc1)C(=O)OC1CC2CCC(C1)N2C (single isomer, unassigned) [(S) ET142 (-)] | ++ (Latency under or equal to 30" ++-)
CC(Oc1ccc(F)cc1)C(=O)OC1CC2CCC(C1)N2C (single isomer, unassigned) [(S) NR100 (-)] | +++ (Latency under or equal to 35" +++-)
CCC(Sc1ccc(Cl)cc1)C(=O)OC1CC2CCC(C1)N2C (single isomer, unassigned) [(S) SM35 (-), 3α-Tropanyl 2-(p-chlorophenylthio)butyrate] | ++ (Latency under or equal to 30" ++-)
CC(Sc1ccc(Cl)cc1)C(=O)OC1CC2CCC(C1)N2C (single isomer, unassigned) [(S) SS20 (+)] | ++ (Latency under or equal to 30" ++-)
CC(Nc1ccc(Cl)cc1)C(=O)OC1CC2CCC(C1)N2C (stereo not drawn) [AC5, 3α-Tropanyl 2-(p-chlorophenylamino)-propionate] | + (Latency under or equal to 25" +-)
CC(C(=O)O[C@H]1C[C@H]2CC[C@@H](C1)N2C)N(C)c1ccc(Cl)cc1 (stereo partly drawn) [AC6, 3α-Tropanyl 2-[N-methyl-N(p-chlorophenyl)amino]-propionate] | ++ (Latency under or equal to 30" ++-)
CC(C)C(Sc1ccc(Cl)cc1)C(=O)OC1CC2CCC(C1)N2C (centres unmarked) [AC11] | + (Latency under or equal to 25" +-)
CCC(C(=O)OC1CC2CCC(C1)N2C)N(C)c1ccc(Cl)cc1 (centres unmarked) [AC13] | ++++ (Latency above 35" ++++-)
CCC(Oc1ccc(F)cc1)C(=O)OC1CC2CCC(C1)N2C (centres unmarked) [AC15] | ++++ (Latency above 35" ++++-)
CCC(Oc1ccc2cc(Br)ccc2c1)C(=O)OC1CC2CCC(C1)N2C (centres unmarked) [AC31] | + (Latency under or equal to 25" +-)
CC(Oc1ccc2ccccc2c1)C(=O)O[C@H]1C[C@H]2CC[C@@H](C1)N2C (stereo partly drawn) [AC-19, 3α-Tropanyl 2-(β-naphthoxy)propionate] | +++ (Latency under or equal to 35" +++-)
CCN1C2CCC1CC(OC(=O)C(C)Oc1ccc(Cl)cc1)C2 (centres unmarked) [GC9] | ++ (Latency under or equal to 30" ++-)
CCC(Oc1ccc(Cl)cc1)C(=O)O[C@H]1C[C@H]2CC[C@@H](C1)N2CC (stereo partly drawn) [GC-11, N-Ethyl-3α-nortropanyl 2-(p-chlopophenoxy)butyrate] | ++ (Latency under or equal to 30" ++-)
CSc1ccc(OC(C)C(=O)O[C@H]2C[C@H]3CC[C@@H](C2)N3C)cc1 (some centres unmarked) [NR95] | + (Latency under or equal to 25" +-)
CC(Oc1ccc(F)cc1)C(=O)O[C@H]1C[C@H]2CC[C@@H](C1)N2C (some centres unmarked) [NR100] | ++++ (Latency above 35" ++++-)
CC(C(=O)OC1CC2CCC(C1)N2C)c1ccc([N+](=O)[O-])cc1 (centres unmarked) [PG4] | + (Latency under or equal to 25" +-)

Compound | ANALGESIC ACTIVITY (degree of analgesia, latency on hot plate)
CC(C(=O)OC1CC2CCC(C1)N2C)c1ccc(N)cc1 (centres unmarked) [PG5] | + (Latency under or equal to 25" +-)
CC(C(=O)OC1CC2CCC(C1)N2C)c1cccc(Cl)c1 (centres unmarked) [PG13] | +++ (Latency under or equal to 35" +++-)
CC(C(=O)OC1CC2CCC(C1)N2C)c1ccccc1Cl (centres unmarked) [PG14] | +++ (Latency under or equal to 35" +++-)
CC(C)Cc1ccc(C(C)C(=O)OC2CC3CCC(C2)N3C)cc1 (centres unmarked) [PG16] | + (Latency under or equal to 25" +-)
COc1ccc(C(C)C(=O)OC2CC3CCC(C2)N3C)cc1 (centres unmarked) [PG18] | + (Latency under or equal to 25" +-)
CC(C(=O)OC1CC2CCC(C1)N2C)c1ccc(F)cc1 (centres unmarked) [PG21] | +++ (Latency under or equal to 35" +++-)
CC(C(=O)OC1CC2CCC(C1)N2C)c1ccccc1Br (centres unmarked) [PG23] | ++ (Latency under or equal to 30" ++-)
CCC(C(=O)OC1CC2CCC(C1)N2C)c1ccc(Br)cc1 (centres unmarked) [PG24] | +++ (Latency under or equal to 35" +++-)
CC(C(=O)O[C@H]1C[C@H]2CC[C@@H](C1)N2C)c1ccc(Cl)cc1 (stereo partly drawn) [PG-8, 3α-Tropanyl 2-(p-chlorophenyl)-propionate] | +++ (Latency under or equal to 35" +++-)
CC(Oc1cccc(Cl)c1)C(=O)OC1CC2CCC(C1)N2C (centres unmarked) [SM12] | ++ (Latency under or equal to 30" ++-)
CC(Oc1ccc(Br)cc1)C(=O)O[C@H]1C[C@H]2CC[C@@H](C1)N2C (some centres unmarked) [SM15] | ++ (Latency under or equal to 30" ++-)
CC(Sc1ccc(Br)cc1)C(=O)OC1CC2CCC(C1)N2C (centres unmarked) [SM17] | ++++ (Latency above 35" ++++-)
CC(Oc1ccc(C(F)(F)F)cc1)C(=O)O[C@H]1C[C@H]2CC[C@@H](C1)N2C (some centres unmarked) [SM19] | + (Latency under or equal to 25" +-)
CC(Sc1ccc(F)cc1)C(=O)OC1CC2CCC(C1)N2C (centres unmarked) [SM23] | ++ (Latency under or equal to 30" ++-)
CN1[C@@H]2CC[C@H]1C[C@@H](OC(=O)C(C)(C)Oc1ccc(Cl)cc1)C2 [SM-25, 3α-Tropanyl 2-(p-chlorophenoxy)-isobutyrate] | ++ (Latency under or equal to 30" ++-)
CCC(Sc1ccc(Cl)cc1)C(=O)O[C@H]1C[C@H]2CC[C@@H](C1)N2C (stereo partly drawn) [SM-35, 3α-Tropanyl 2-(p-chlorophenylthio)-butyrate] | +++ (Latency under or equal to 35" +++-)
CC(Oc1ccc(Cl)c(Cl)c1)C(=O)OC1CC2CCC(C1)N2C (centres unmarked) [SS10] | + (Latency under or equal to 25" +-)
CC(Sc1ccccc1)C(=O)OC1CC2CCC(C1)N2C (centres unmarked) [SS12] | ++ (Latency under or equal to 30" ++-)
Cc1ccc(SC(C)C(=O)OC2CC3CCC(C2)N3C)cc1 (centres unmarked) [SS21] | + (Latency under or equal to 25" +-)
CC(Oc1ccc(C#N)cc1)C(=O)O[C@H]1C[C@H]2CC[C@@H](C1)N2C (some centres unmarked) [SS26] | ++ (Latency under or equal to 30" ++-)

same assay, conditions: mouse; in μmoles/kg

Compound | dose required to obtain analgesia equivalent to that of the claimed compounds
CN1CC[C@]23c4c5ccc(O)c4O[C@H]2[C@@H](O)C=C[C@H]3[C@H]1C5.Cl [Morphine HCl, reference compound] | three times lower

From patent publication US5583142A, “Analgesic and nootropic drugs” (priority 1992, dated 1996)
